# Experimental data from the supplement of paper PMC11424490.
# Experiments:
# NCI-H2122 = experiment: combination cScore with adagrasib (Bliss gap around IC50) (%PoC); higher = stronger additive effect
# In short: (§1)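 Scores represent the average Bliss-independence gap, expected minus measured viability, in a field surrounding both monotherapy IC50s, with the top concentrations used when no IC50 was reached. Cells (NCI-H2122, NCI-H358, SW837) were seeded at 500 or 800 per well in 384-well plates, dosed in matrices at 24 h and grown for 72 h, with SW837 grown for 144 h. Viability was measured by CellTiter-Glo, normalised to vehicle wells and fitted with four-parameter curves.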
# SW837 = experiment: as above
# In short: as §1
SMILES,combination cScore with adagrasib (NCI-H2122),combination cScore with adagrasib (SW837)
Cc1cn(CCN2CCN(c3ccccc3-c3cc(C#N)cc(C(=O)NCCCN4CCCC4)c3)CC2)c2ccccc12 [LLY-507] + C=C(F)C(=O)N1CCN(c2nc(OC[C@@H]3CCCN3C)nc3c2CCN(c2cccc4cccc(Cl)c24)C3)C[C@@H]1CC#N [adagrasib],12.6,20.3
Cc1ccc(NC(=O)c2ccnc(C(F)(F)F)c2)cc1-c1cc(OCCO)nc(N2CCOCC2)c1 [LXH-254] + C=C(F)C(=O)N1CCN(c2nc(OC[C@@H]3CCCN3C)nc3c2CCN(c2cccc4cccc(Cl)c24)C3)C[C@@H]1CC#N [adagrasib],-3.51,0.67
Nc1cccc2c1CN(C1CCC(=O)NC1=O)C2=O (centres undefined) [Lenalidomide] + C=C(F)C(=O)N1CCN(c2nc(OC[C@@H]3CCCN3C)nc3c2CCN(c2cccc4cccc(Cl)c24)C3)C[C@@H]1CC#N [adagrasib],-12.8,-3.14
O=C(O)c1nn(Cc2ccc(Cl)cc2Cl)c2ccccc12 [Lonidamine] + C=C(F)C(=O)N1CCN(c2nc(OC[C@@H]3CCCN3C)nc3c2CCN(c2cccc4cccc(Cl)c24)C3)C[C@@H]1CC#N [adagrasib],-1.92,-1.95
CC[C@H](C)C(=O)O[C@H]1C[C@@H](C)C=C2C=C[C@H](C)[C@H](CC[C@@H]3C[C@@H](O)CC(=O)O3)[C@H]21 [Lovastatin] + C=C(F)C(=O)N1CCN(c2nc(OC[C@@H]3CCCN3C)nc3c2CCN(c2cccc4cccc(Cl)c24)C3)C[C@@H]1CC#N [adagrasib],-4.64,1.03
COc1cc(Nc2ncc3c(n2)-c2ccc(Cl)cc2C(c2c(F)cccc2OC)=NC3)ccc1C(=O)O [MLN8237] + C=C(F)C(=O)N1CCN(c2nc(OC[C@@H]3CCCN3C)nc3c2CCN(c2cccc4cccc(Cl)c24)C3)C[C@@H]1CC#N [adagrasib],-0.97,4.72
Cc1ccc(NC(=O)c2ccc(CN3CCN(C)CC3)cc2)cc1Nc1nc(-c2cccnc2)cs1 [Masitinib] + C=C(F)C(=O)N1CCN(c2nc(OC[C@@H]3CCCN3C)nc3c2CCN(c2cccc4cccc(Cl)c24)C3)C[C@@H]1CC#N [adagrasib],5.2,-2.55
C[C@H](Cc1ccc(O)c(O)c1)[C@@H](C)Cc1ccc(O)c(O)c1 [Masoprocol] + C=C(F)C(=O)N1CCN(c2nc(OC[C@@H]3CCCN3C)nc3c2CCN(c2cccc4cccc(Cl)c24)C3)C[C@@H]1CC#N [adagrasib],1.34,-3.46
N[C@@H](Cc1ccc(N(CCCl)CCCl)cc1)C(=O)O [Melphalan] + C=C(F)C(=O)N1CCN(c2nc(OC[C@@H]3CCCN3C)nc3c2CCN(c2cccc4cccc(Cl)c24)C3)C[C@@H]1CC#N [adagrasib],3.55,-0.68
CN(C)C(=N)NC(=N)N [Metformin] + C=C(F)C(=O)N1CCN(c2nc(OC[C@@H]3CCCN3C)nc3c2CCN(c2cccc4cccc(Cl)c24)C3)C[C@@H]1CC#N [adagrasib],-8.41,1.92
CN(Cc1cnc2nc(N)nc(N)c2n1)c1ccc(C(=O)N[C@@H](CCC(=O)O)C(=O)O)cc1 [Methotrexate] + C=C(F)C(=O)N1CCN(c2nc(OC[C@@H]3CCCN3C)nc3c2CCN(c2cccc4cccc(Cl)c24)C3)C[C@@H]1CC#N [adagrasib],-2.65,-8.99
CO[C@@]12[C@H](COC(N)=O)C3=C(C(=O)C(C)=C(N)C3=O)N1C[C@@H]1N[C@@H]12 [Mitomycin C] + C=C(F)C(=O)N1CCN(c2nc(OC[C@@H]3CCCN3C)nc3c2CCN(c2cccc4cccc(Cl)c24)C3)C[C@@H]1CC#N [adagrasib],0.77,-3.24
CCc1cccc(CC)c1NC(=O)c1nn(C)c2c1CCc1cnc(Nc3ccc(C(=O)NC4CCN(C)CC4)cc3OC(F)(F)F)nc1-2 [NMS-P715] + C=C(F)C(=O)N1CCN(c2nc(OC[C@@H]3CCCN3C)nc3c2CCN(c2cccc4cccc(Cl)c24)C3)C[C@@H]1CC#N [adagrasib],-2.37,2.41
O=c1cc(N2CCOCC2)oc2c(-c3cccc4c3sc3ccccc34)cccc12 [NU-7441] + C=C(F)C(=O)N1CCN(c2nc(OC[C@@H]3CCCN3C)nc3c2CCN(c2cccc4cccc(Cl)c24)C3)C[C@@H]1CC#N [adagrasib],6.81,11.6
Cn1c(=O)n(-c2ccc(C(C)(C)C#N)cc2)c2c3cc(-c4cnc5ccccc5c4)ccc3ncc21 [NVP-BEZ235] + C=C(F)C(=O)N1CCN(c2nc(OC[C@@H]3CCCN3C)nc3c2CCN(c2cccc4cccc(Cl)c24)C3)C[C@@H]1CC#N [adagrasib],3.55,6.19
Cc1cn(-c2cc(NC(=O)c3ccc(C)c(Nc4nccc(-c5cccnc5)n4)c3)cc(C(F)(F)F)c2)cn1 [Nilotinib] + C=C(F)C(=O)N1CCN(c2nc(OC[C@@H]3CCCN3C)nc3c2CCN(c2cccc4cccc(Cl)c24)C3)C[C@@H]1CC#N [adagrasib],10.6,9.6
COC(=O)c1ccc2c(c1)NC(=O)/C2=C(\Nc1ccc(N(C)C(=O)CN2CCN(C)CC2)cc1)c1ccccc1 [Nintedanib] + C=C(F)C(=O)N1CCN(c2nc(OC[C@@H]3CCCN3C)nc3c2CCN(c2cccc4cccc(Cl)c24)C3)C[C@@H]1CC#N [adagrasib],7.6,4.49
CN1CCN(c2ccc(-c3cccc(CN4CCOCC4)c3)cc2NC(=O)c2c[nH]c(=O)cc2C(F)(F)F)CC1 [OICR-9429] + C=C(F)C(=O)N1CCN(c2nc(OC[C@@H]3CCCN3C)nc3c2CCN(c2cccc4cccc(Cl)c24)C3)C[C@@H]1CC#N [adagrasib],-2.61,8.92
N[C@H]1CC[C@H](N[C@@H]2C[C@H]2c2ccccc2)CC1 [ORY-1001] + C=C(F)C(=O)N1CCN(c2nc(OC[C@@H]3CCCN3C)nc3c2CCN(c2cccc4cccc(Cl)c24)C3)C[C@@H]1CC#N [adagrasib],-4.53,2.12
O=C(O)C(=O)O.[NH-][C@@H]1CCCC[C@H]1[NH-].[Pt+2] [Oxaliplatin] + C=C(F)C(=O)N1CCN(c2nc(OC[C@@H]3CCCN3C)nc3c2CCN(c2cccc4cccc(Cl)c24)C3)C[C@@H]1CC#N [adagrasib],5.21,-1.13
CC(=O)O[C@H]1C(=O)[C@@]2(C)[C@H]([C@H](OC(=O)c3ccccc3)[C@]3(O)C[C@H](OC(=O)[C@H](O)[C@@H](NC(=O)c4ccccc4)c4ccccc4)C(C)=C1C3(C)C)[C@]1(OC(C)=O)CO[C@@H]1C[C@@H]2O [Paclitaxel] + C=C(F)C(=O)N1CCN(c2nc(OC[C@@H]3CCCN3C)nc3c2CCN(c2cccc4cccc(Cl)c24)C3)C[C@@H]1CC#N [adagrasib],0.85,2.18
Cc1[nH]c2ccccc2c1CCNCc1ccc(/C=C/C(=O)NO)cc1 [Panobinostat] + C=C(F)C(=O)N1CCN(c2nc(OC[C@@H]3CCCN3C)nc3c2CCN(c2cccc4cccc(Cl)c24)C3)C[C@@H]1CC#N [adagrasib],2.38,5.72
